Source: patent US20260115314A1, “PREVENTION AND/OR TREATMENT OF CARDIAC DAMAGE” (priority 2022, published 2026)
Where no end group is shown, it is not given here.

Columns and labels:
[1] = tested on: inducible nitric oxide synthase (iNOS); assay: Immunoblot of iNOS in LPS-stimulated RAW 264.7 macrophages; format: cell-based; conditions: NIL10 plus STATTIC
Description: (§2) A. Confocal microscopy detection of NF-κB (p65) in RAW 264.7 cells stimulated with 500 μM LPS or in combination with NIL10. Nuclei were stained with DAPI. […] (N=3, results expressed as Mean±SD. *P<0.05 LPS/NIL10 vs LPS/NIL10SC). […] Confocal microscopy detection as in A, in which STATTIC, a pharmacological inhibitor of STAT3 was incubated. Arrows point nuclear or cytoplasmic localization of p65. Lower panels: immunoblot detection of iNOS in cells as in C. (N=3, results expressed as Mean±SD. *P<0.03 LPS vs LPS/NIL10 **P<0.05 LPS/STATTIC vs LPS/NIL10SC/STATTIC. ***P<0.001 NIL10/STATIC vs LPS/NIL10/STATIC).
(§3) The expression of the readout inducible nitric oxide synthase (iNOS) by pro-inflammatory signals was also assayed.

NF-κB = NF-κB (p65) nuclear translocation in LPS-stimulated RAW 264.7 macrophages, confocal microscopy; format: cell-based; conditions: RAW 264.7 cells, NIL10, co-incubated with 5 μM STATTIC
Description: as §2, §3

IL-10R = target: T1, IL-10R (Mus musculus, UniProt Q61727); assay: Confocal microscopy colocalization of nanoparticles with IL-10R in RAW 264.7 macrophages; format: binding; conditions: RAW 264.7 cells, rhodamine nanoparticle vs FITC anti-IL-10R
T1 construct: endogenous in cells; host or cells: RAW 264.7 macrophages
T1 sequence (Q61727 17-575): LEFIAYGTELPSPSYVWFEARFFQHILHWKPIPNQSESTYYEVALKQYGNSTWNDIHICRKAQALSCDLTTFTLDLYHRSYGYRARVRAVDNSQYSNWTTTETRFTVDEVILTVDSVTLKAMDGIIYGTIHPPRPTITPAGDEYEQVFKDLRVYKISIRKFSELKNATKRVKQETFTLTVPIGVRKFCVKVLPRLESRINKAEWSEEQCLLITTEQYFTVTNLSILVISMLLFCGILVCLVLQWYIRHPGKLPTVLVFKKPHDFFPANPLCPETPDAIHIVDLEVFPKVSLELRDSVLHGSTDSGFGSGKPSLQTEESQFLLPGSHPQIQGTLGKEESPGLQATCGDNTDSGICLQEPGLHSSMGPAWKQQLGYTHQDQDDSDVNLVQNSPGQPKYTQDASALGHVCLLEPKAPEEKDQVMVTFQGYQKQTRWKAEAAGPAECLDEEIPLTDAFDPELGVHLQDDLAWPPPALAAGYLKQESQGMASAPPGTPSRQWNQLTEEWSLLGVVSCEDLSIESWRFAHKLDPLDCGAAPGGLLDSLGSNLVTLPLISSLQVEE
Description: FIG. 1. NIL10 binds to IL-10R in RAW 264.7 cells. A. Nanoparticle composition of NIL10 and NIL10SC. B. Z-potential, longitudinal and transversal relaxivities of NIL10 and NIL10SC nanoparticles. C. Bright field and confocal microscopy sections of RAW 264.7 macrophages, detecting rhodamine (red) containing NIL10 nanoparticles. D,E Colocalization of NIL10 (D) (rhodamine, red) or NIL10SC (E) with IL-10R (FICT, green) in confocal microscopy sections of RAW 264.7 cells incubated with NIL10 and anti-IL-10R specific antibody. Merged panel show co-localization of both signals. Nuclei were stained with Hoechst. Right panel: colocalization analysis with Image J co-localization plugin software, in which white dots correspond to co-localization (N=3).
To study the specificity of nanoparticles, we first incubated NIL10 (FIG. 1A, B) in RAW 264.7 macrophages, detecting rhodamine-containing nanoparticles by confocal microscopy (FIG. 1C).

pigs subjected to IR = assay: Evans Blue/TTC staining of necrotic area in pig hearts after IR; format: in vivo; conditions: 1 mg/kg, after 7 days of IR, EvansBlue/TTC
Text: FIG. 6. NIL10 induces cardiac protection in pigs subjected to IR. A. Evans blue/TTC staining (see methods for details) of pig heart sections (from apex to base) after 7 days of IR, showing healthy tissue (blue), the area at risk (red) and the necrotic areas (white). B. Measurement of necrotic areas of the hearts, represented as a percentage respect to the area at risk (Mean±SD. *P<0.001 NIL10 vs NIL10SC, at day 7 post IR). C. Left ventricle ejection fraction of hearts from pigs injected with NIL10 or NIL10SC after 7 days of IR (Mean±SD. *P<0.001 NIL10 vs NIL10SC). D. Hematoxylin and Eosin staining of healthy and necrotic heart sections from pigs injected with NIL10 or NIL10SC after 7 days of IR. E. Masson Trichrome staining of the same hearts as in D. (N=10 pigs/group).
20 male Yorkshire pigs (30±4 kg) were housed 1 week preceding the surgery to avoid unease or stress associated with the new environment. Prior to the surgical intervention, animals were anesthetized with intramuscular ketamine 10 mg/kg and midazolam 0.5 mg/kg.
Anesthesia was induced by inhaled sevoflurane and maintained with continuous infusion of propofol 2 mL/kg/h, fentanyl 50 μg/kg/h, and diazepam 10 μg/kg/h. […]

[2] = tested on: mouse hearts subjected to IR; assay: Hematoxylin/Eosin and Masson trichrome staining of mouse heart sections after IR; format: in vivo, mice; conditions: by day 7 after IR
Text: FIG. 4. Hematoxylin and Eosin staining of mouse hearts. Heart sections of mice subjected to IR and injected with NIL10 or NIL10SC and collected by days 3 (A) or 7 (B) after IR. N=10 mice/group. From left to right: 2×, 20×, 40×. *P<0.05 D3; **P<0.01D7.
FIG. 5. NIL10 reduce heart fibrosis in response to IR. A. Representative immunoblot of MMP9 from healthy (H) or necrotic (N) areas of mouse hearts after 7 days of IR and injected with NIL10 or NIL10SC. N=10 mice/group. Mean±SD. *P<0.001 NIL10 vs NIL10SC necrotic areas. B. Masson Trichrome staining of heart sections from mice injected with NIL10 or NIL10SC, after 3- or 7-days post IR (N=10 mice/group). *P<0.05 D3; **P<0.03 D7.
(§1) 20 male twelve-week-old wild type, IL10 knock-out and IL10RA knock-out mice C57/BL6 were anesthetized by inhaled 3% sevoflurane and oxygen with a flow rate of 0.4 L/min until loss of righting reflex. Then, endotracheal intubation was perform using an intubation cannula in order to carry out artificial ventilation (tidal volume: 260 μL/stroke, ventilation rate: 130 strokes per minute). The fourth left intercostal space was opened and widened using chest mice retractors. Left ventricle was exposed and LAD was occluded for 30 min close by using a 6-0 silk suture and 1 mm tube. […]
Heart morphology was visualized by Hematoxylin/Eosin staining and collagen deposition was detected by Masson's trichrome staining in mice and pigs.

mice subjected to IR = assay: LVEF by echocardiography in wild type mice subjected to IR; format: in vivo; conditions: 1 mg/kg 24 hours after IR, value NIL10 is compared against, day not given
Text: FIG. 3. NIL10 induces cardiac protection in mice subjected to IR. A. Outline of the proceedings performed. B. Representative electrocardiogram, showing ST-elevation after LAD occlusion. C. Left ventricle ejection fraction (LVEF) of wild type mouse hearts at the times indicated after IR and injected with NIL10 or NIL10SC as in A. N=10 mice/group. Results expressed as mean±SD. *P<0.03 NIL10 vs NIL10SC day 7. #P<0.05 NIL10 vs NIL10SC day 3. D. LVEF in IL-10 knockout mice. N=10 mice/group. Results expressed as mean±SD. *P<0.01 NIL10 vs NIL10SC day 7. #P<0.05 NIL10 vs NIL10SC day 3. E. LVEF in IL-10 receptor knockout mice. N=10 mice/group. Results expressed as mean±SD.
as §1, with “tube. Reperfusion was performed by ligation release. After the procedure, the chest was closed, negative pressure restored, and the skin sutured.” for “tube.”

[3] = tested on: M2 CD68+/CD206+ macrophages; assay: Flow cytometry of M2 macrophage populations in mouse hearts after IR; format: in vivo, mice; conditions: cell extracts from necrotic areas of mouse hearts, 3 and 7 days of IR
Text: FIG. 7. NIL10 induces M2 macrophage polarization in the hearts of mice subjected to IR. A. Flow cytometry analysis of macrophage populations in mouse hearts after 3 and 7 days of IR. The percentage of M2 CD68+/CD206+ population were selected from the necrotic and at-risk areas of the hearts. B. Gating strategy used to identify macrophage-cell subsets in the health and infarcted mouse heart. A sequential getting strategy was first used to identify M2 population expressing specific macrophage marker CD68, followed by the identification of the population with overlapping expression patterns (CD68/CD206) (N=10 mice/group). Differences between groups were compared using one-way ANOVA. **P<0.01. ***P<0.001. ****P<0.0001.
Whole mouse hearts were mashed in complete DMEM (10% FBS, penicillin/streptomycin) through a 100-μm cell strainer. ACK Lysing Buffer was added to the single-cell suspension and spun down at 350 g for 5 minutes. The ACK was washed out with 50 mL of washing buffer (1% FBS), and cells were incubated with 1:100 anti-EMMPRIN, anti-CD68 and anti-CD206 antibodies. All flow cytometry samples were assayed in a MACSQuant Analyzer Flow Cytometer and analyzed with the Graphpad Prism software package.

With `O=[N+]([O-])c1ccc2c(c1)S(=O)(=O)C=C2` [STATTIC] the “NIL10 inhibition of iNOS expression in the presence of STATTIC” value [1] was “reversed” and the “NIL10-induced cytoplasmic localization of NF-κB” value (NF-κB) was “prevented”.

“NIL10SC: nanoparticle conjugated with the same peptide in a scrambled orientation (CANYRMITKM); control, does not bind IL10R (also: conjugated to nanoparticle (site not given here))” was tested, and the “Colocalization with the IL-10R” value (IL-10R) was “no binding”, the necrotic area (pigs subjected to IR) was 55±7.34 percentage respect to the area and the “extension of fibrosis (Masson Trichrome)” value [2] was “fibrotic lesions were widespread”. For the same compound, the “LVEF (comparator value)” value (mice subjected to IR) was 41.5%±4.33 and the “presence of M2-resolving macrophages” value [3] was “takes 7 days to detect a similar effect”.
